Measurements: patent publication US9549556B2, “Macrocyclic picolinamides as fungicides” (DOW AGROSCIENCES LLC, priority 2013, dated 2017)
Read-outs that look alike come from different tables or passages of the source.

Legend:
[1] = test system: Puccinia triticina; assay: Wheat brown rust (PUCCRT) disease control on wheat seedlings; format: in vivo; details: read-out: PUCCRT disease control rating (% Control); for pest or weed control at 100 ppm: high volume application; for pest or weed control at 121.5 g/ha: 121.5 g/H, low volume (track spray) application
[2] = test system: Septoria tritici; assay: Leaf blotch of wheat (SEPTTR) disease control on wheat seedlings; format: in vivo, Mycosphaerella graminicola (anamorph Septoria tritici); details: Zymoseptoria tritici, read-out: SEPTTR disease control rating (% Control); for pest or weed control at 100 ppm: high volume application; for pest or weed control at 121.5 g/ha: 121.5 g/H, low volume (track spray) application
Experimental: Evaluation of Fungicidal Activity: Leaf Blotch of Wheat (Mycosphaerella graminicola; Anamorph: Septoria tritici; Bayer Code […]) Technical grades of materials were dissolved in acetone, which were then mixed with nine volumes of water containing 110 ppm Triton X-100. The fungicide solutions were applied onto wheat seedlings using an automated booth sprayer to run-off. All sprayed plants were allowed to air dry prior to further handling. All fungicides were evaluated using the aforementioned method for their activity vs. all target diseases. Wheat leaf blotch and brown rust activity were also evaluated using track spray applications, in which case the fungicides were formulated as EC formulations, containing 0.1% Trycol 5941 in the spray solutions. Wheat plants (variety Yuma) were grown from seed in a greenhouse in 50% mineral soil/50% soil-less Metro mix until the first leaf was fully emerged, with 7-10 seedlings per pot. These plants were inoculated with an aqueous spore suspension of Septoria tritici either prior to or after fungicide treatments. After inoculation the plants were kept in 100% relative humidity (one day in a dark dew chamber followed by two to three days in a lighted dew chamber at 20° C.) to permit spores to germinate and infect the leaf. The plants were then transferred to a greenhouse set at 20° C. for disease to develop. When disease symptoms were fully expressed on the 1st leaves of untreated plants, infection levels were assessed on a scale of 0 to 100 percent disease severity. Percent disease control was calculated using the ratio of disease severity on treated plants relative to untreated plants.

Structure (SMILES) | pest or weed control at 100 ppm ([1]; 24 h, 1DP (1 Day Protectant)) [%] | pest or weed control at 100 ppm ([1]; 72 h, 3DC (3 Day Curative)) [%] | pest or weed control at 100 ppm ([2]; 24 h, 1DP (1 Day Protectant)) [%] | pest or weed control at 100 ppm ([2]; 72 h, 3DC (3 Day Curative)) [%] | pest or weed control at 121.5 g/ha ([1]; 24 h, 1DP (1 Day Protectant)) [%] | pest or weed control at 121.5 g/ha ([1]; 72 h, 3DC (3 Day Curative)) [%] | pest or weed control at 121.5 g/ha ([2]; 24 h, 1DP (1 Day Protectant)) [%] | pest or weed control at 121.5 g/ha ([2]; 72 h, 3DC (3 Day Curative)) [%]
COc1ccnc(C(=O)N[C@H]2COC[C@H](Oc3ccc(C)cc3)[C@@H](Cc3ccc(F)cc3)[C@H](C)OC2=O)c1O [Compound 23] | > 70 | < 70 | > 70 | < 70 |  |  |  | 
COc1ccnc(C(=O)N[C@H]2COC[C@H](OCc3ccccc3)[C@@H](Cc3ccc(F)cc3)[C@H](C)OC2=O)c1O [Compound 38] | > 70 | > 70 | > 70 | > 70 |  |  |  | 
COc1ccnc(C(=O)N[C@H]2COC[C@H](OCc3ccccc3)[C@@H](CCC(C)C)[C@H](C)OC2=O)c1OCOC(C)=O [Compound 14] |  |  |  |  | > 70 | > 70 | > 70 | > 70
COc1ccnc(C(=O)N[C@H]2COC[C@H](OCC(C)C)[C@@H](Cc3ccccc3)[C@H](C)OC2=O)c1OCOC(C)=O [Compound 85] | > 70 | > 70 | < 70 | > 70 | > 70 | > 70 | > 70 | > 70
CCCC[C@H]1[C@H](C)OC(=O)[C@@H](NC(=O)c2nccc(OC)c2O)COC[C@@H]1Oc1ccccc1 [Compound 45] | > 70 | < 70 | > 70 | < 70 |  |  |  | 
CCCC[C@H]1[C@H](C)OC(=O)[C@@H](NC(=O)c2nccc(OC)c2OCOC(C)=O)COC[C@@H]1OC(=O)C(C)C [Compound 43] |  |  |  |  | > 70 | > 70 | < 70 | > 70
CCCO[C@H]1COC[C@H](NC(=O)c2nccc(OC)c2OC(C)=O)C(=O)O[C@@H](C)[C@@H]1Cc1ccc(F)cc1 [Compound 20] |  |  |  |  | > 70 | > 70 | > 70 | > 70
CCCO[C@H]1COC[C@H](NC(=O)c2nccc(OC)c2OCOC(C)=O)C(=O)O[C@@H](C)[C@@H]1CCC(C)C [Compound 18, ((2-(((3S,7R,8S,9S)-8-isopentyl-9-methyl-2-oxo-7-propoxy-1,5-dioxonan-3-yl)carbamoyl)-4-methoxypyridin-3-yl)oxy)methyl acetate] |  |  |  |  | > 70 | > 70 | < 70 | > 70
COc1ccnc(C(=O)N[C@H]2COC[C@H](Oc3ccccc3)[C@@H](Cc3ccccc3)[C@H](C)OC2=O)c1OC(C)=O [Compound 81] |  |  |  |  | > 70 | > 70 | > 70 | > 70
COc1ccnc(C(=O)N[C@H]2COC[C@H](OC(=O)C3CC3)[C@@H](Cc3ccc(F)cc3)[C@H](C)OC2=O)c1O [Compound 25] | > 70 | > 70 | > 70 | > 70 |  |  |  | 
COc1ccnc(C(=O)N[C@H]2COC[C@H](OCOCc3ccccc3)[C@@H](Cc3ccccc3)[C@H](C)OC2=O)c1O [Compound 72, N-((3S,7R,8S,9S)-8-benzyl-7-((benzyloxy)methoxy)-9-methyl-2-oxo-1,5-dioxonan-3-yl)-3-hydroxy-4-methoxypicolinamide] | > 70 | < 70 | < 70 | < 70 |  |  |  | 
CCCO[C@H]1COC[C@H](NC(=O)c2nccc(OC)c2OCOC(C)=O)C(=O)O[C@@H](C)[C@@H]1Cc1ccc(F)cc1 [Compound 62] |  |  |  |  | > 70 | > 70 | > 70 | > 70
COc1ccnc(C(=O)N[C@H]2COC[C@H](Oc3ccccc3)[C@@H](CCC(C)C)[C@H](C)OC2=O)c1OC(C)=O [Compound 47] |  |  |  |  | > 70 | < 70 | > 70 | > 70
COc1ccnc(C(=O)N[C@H]2COC[C@H](OCC3CC3)[C@@H](Cc3ccc(F)cc3)[C@H](C)OC2=O)c1OCOC(C)=O [Compound 71] |  |  |  |  | > 70 | > 70 | > 70 | > 70
COc1ccnc(C(=O)N[C@H]2COC[C@H](OC(=O)C3CC3)[C@@H](CCC(C)C)[C@H](C)OC2=O)c1O [Compound 36] | < 70 | < 70 | < 70 | > 70 |  |  |  | 
CCCC[C@H]1[C@H](C)OC(=O)[C@@H](NC(=O)c2nccc(OC)c2O)COC[C@@H]1OC(=O)C(C)C [Compound 58] | > 70 | < 70 | < 70 | > 70 |  |  |  | 
CCCC[C@H]1[C@H](C)OC(=O)[C@@H](NC(=O)c2nccc(OC)c2O)COC[C@@H]1OCc1ccccc1 [Compound 37] | > 70 | > 70 | > 70 | > 70 |  |  |  | 
COc1ccnc(C(=O)N[C@H]2COC[C@H](OC(=O)C3CC3)[C@@H](CCC(C)C)[C@H](C)OC2=O)c1OC(C)=O [Compound 68, (3S,7R,8S,9S)-3-(3-acetoxy-4-methoxypicolinamido)-8-isopentyl-9-methyl-2-oxo-1,5-dioxonan-7-yl cyclopropanecarboxylate] |  |  |  |  | > 70 | > 70 | < 70 | > 70
CCCC[C@H]1[C@H](C)OC(=O)[C@@H](NC(=O)c2nccc(OC)c2OCOC(C)=O)COC[C@@H]1OCc1ccccc1 [Compound 40] |  |  |  |  | > 70 | > 70 | > 70 | > 70
COc1ccnc(C(=O)N[C@H]2COC[C@H](OCC3CC3)[C@@H](Cc3ccc(F)cc3)[C@H](C)OC2=O)c1O [Compound 24] | > 70 | > 70 | > 70 | > 70 |  |  |  | 
CCCC[C@H]1[C@H](C)OC(=O)[C@@H](NC(=O)c2nccc(OC)c2OCOC(C)=O)COC[C@@H]1Oc1ccccc1 [Compound 44] |  |  |  |  | > 70 | > 70 | > 70 | > 70
COc1ccnc(C(=O)N[C@H]2COC[C@H](OCc3ccccc3)[C@@H](Cc3ccc(F)cc3)[C@H](C)OC2=O)c1OCOC(C)=O [Compound 30] |  |  |  |  | > 70 | > 70 | > 70 | > 70
CCOCC(=O)OCOc1c(OC)ccnc1C(=O)N[C@H]1COC[C@H](OCOCc2ccccc2)[C@@H](Cc2ccccc2)[C@H](C)OC1=O [Compound 26] | > 70 | > 70 | > 70 | > 70 |  |  |  | 
COCCC(=O)Oc1c(OC)ccnc1C(=O)N[C@H]1COC[C@H](Oc2ccccc2)[C@@H](Cc2ccccc2)[C@H](C)OC1=O [Compound 73] |  |  |  |  | > 70 | > 70 | > 70 | > 70
COc1ccnc(C(=O)N[C@H]2COC[C@H](OCC3CC3)[C@@H](Cc3ccccc3)[C@H](C)OC2=O)c1O [Compound 83] | > 70 | > 70 | > 70 | > 70 |  |  |  | 
COc1ccnc(C(=O)N[C@H]2COC[C@H](Oc3ccc(C)cc3)[C@@H](Cc3ccc(F)cc3)[C@H](C)OC2=O)c1OCOC(C)=O [Compound 64] |  |  |  |  | > 70 | < 70 | > 70 | > 70
CCCC[C@H]1[C@H](C)OC(=O)[C@@H](NC(=O)c2nccc(OC)c2OCOC(C)=O)COC[C@@H]1OCCCC(F)(F)F [Compound 48] |  |  |  |  | > 70 | > 70 | > 70 | > 70
